These results are taken from ChEMBL document CHEMBL2062495.

Test [1] relates to Dendritic cell. The experiment in a line: Inhibition of MHC class 2-dependent antigen processing in DO11.10 TCR transgenic mouse spleen CD11+ dendritic cells assessed as inhibition of ovalbumin 323 to 339-induced CD4+ T cell proliferation incubated for 1 hr prior to ovalbumin 323 to 339 challenge measured after 72 hrs by [3H]thymidine incorporation assay. It is filed as functional, tissue-based. (Uptake of a labelled nucleoside into DNA is a usual measure of proliferation.)

In test [2] the test system is Dendritic cell. The experiment in a line: Inhibition of MHC class 2-dependent antigen processing in DO11.10 TCR transgenic mouse spleen CD11+ dendritic cells assessed as inhibition of whole ovalbumin-induced CD4+ T cell proliferation incubated for 1 hr prior to whole ovalbumin-challenge measured after 72 hrs by [3H]thymidine incorporation assay. Type of test: functional, tissue-based.

SMILES strings stand for the structures. The source made the active and inactive calls. No cut-off for these calls is given here. Square brackets hold non-standard residues; d marks the D form. Peptide text beside a SMILES is read from it. * marks the point of attachment. Sta = CC(C)C[C@H](N)[C@@H](O)CC(=O)O; NMe2Val = CC(C)[C@@H](C(=O)*)N(C)C; dNMeF = CN[C@H](Cc1ccccc1)C(=O)O; dHiv = CC(C)[C@@H](O)C(=O)O; Hiv = CC(C)[C@H](O)C(=O)O

For the compound `COC(=O)[C@@H]1CCCN1C(=O)[C@@H](Cc1ccccc1)N(C)C(=O)[C@H](C)NC(=O)[C@@H](NC(=O)C[C@H](O)[C@H](CC(C)C)NC(=O)[C@H](CC(N)=O)NC(=O)[C@H](CC(C)C)NC(=O)[C@H](OC(=O)[C@@H](OC(=O)[C@H](C(C)C)N(C)C)C(C)C)C(C)C)[C@@H](C)O` (NMe2Val-[Hiv][dHiv]LN[Sta]TA[dNMeF]P-OMe), the inhibition result in the test with Dendritic cell [1] and with Dendritic cell [2] was “inactive” throughout.
